Source: patent publication US3985737A, “3-Sulfonate esters of cephalosporin” (Eli Lilly and Company, priority 1974, dated 1976)
Converted amounts (≈) assume the structure as drawn. Read-outs that look alike come from different tables or passages of the source.

What was measured:
[1] = test system: Shigella sp.; test: Standard Gradient-Plate method, MIC vs. Shigella sp.; format: cell-based; conditions: in vitro, read-out: Minimum Inhibitory Concentration
From the text: (§1) The 7-acylamido-3-cephem-3-sulfonate esters of the formula I wherein R1 is hydrogen (the free acid form) are useful antibiotic substances which are useful in combatting infections attributable to gram-positive and gram-negative bacteria and also penicillin resistant staphylococci. The antibacterial activity of these sulfonate esters is illustrated by the following in vitro test data obtained with representative compounds. In Table I below, the minimum inhibitory concentration (MIC) for representative compounds against gram-negative bacteria is presented. The data were obtained by the standard Gradient-Plate method.

[2] = test system: Escherichia coli; test: Standard Gradient-Plate method, MIC vs. Escherichia coli; format: cell-based; conditions: in vitro, read-out: Minimum Inhibitory Concentration
From the text: as §1

[3] = test system: Klebsiella pneumoniae; test: Standard Gradient-Plate method, MIC vs. Klebsiella pneumoniae; format: cell-based; conditions: in vitro, read-out: Minimum Inhibitory Concentration
From the text: as §1

[4] = test system: Aerobacter aerogenes; test: Standard Gradient-Plate method, MIC vs. Aerobacter aerogenes; format: cell-based; conditions: Klebsiella aerogenes, in vitro, read-out: Minimum Inhibitory Concentration
From the text: as §1

[5] = test system: Salmonella heidelberg; test: Standard Gradient-Plate method, MIC vs. Salmonella heidelberg; format: cell-based; conditions: Salmonella enterica, in vitro, read-out: Minimum Inhibitory Concentration
From the text: as §1

[6] = test system: Pseudomonas aeruginosa; test: Standard Gradient-Plate method, MIC vs. Pseudomonas aeruginosa; format: cell-based; conditions: in vitro, read-out: Minimum Inhibitory Concentration
From the text: as §1

[7] = test system: Serratia marcescens; test: Standard Gradient-Plate method, MIC vs. Serratia marcescens; format: cell-based; conditions: in vitro, read-out: Minimum Inhibitory Concentration
From the text: as §1

[8] = Electrometric titration; format: physicochemical; conditions: 80% aqueous methyl cellosolve, 80 percent aqueous methyl cellosolve
From the text: Electrometric titration (80 percent aqueous methyl cellosolve) pKa 3.9.
Electrometric titration in 80 percent aqueous methyl cellosolve pKa 4.15.
Electrometric titration in 80 percent aqueous methyl cellosolve pKa 4.75.
Electrometric titration (80 percent aqueous methyl cellosolve) pKa 4.4.
Electrometric titration (80 percent aqueous methyl cellosolve) pKa 4.25.

SMILES	MIC [1]	MIC [2]	MIC [3]	MIC [4]	MIC [5]	MIC [6]	MIC [7]	pKa ([8]; read-out: pKa)	pKa ([8]; second of two pKa values, read-out: pKa (second value))
CS(=O)(=O)OC1=C(C(=O)O)N2C(=O)C(NC(=O)Cc3cccs3)[C@H]2SC1 (stereo partly shown) [Compound 1, 7-[2-(2-thienyl)acetamido]-3-methylsulfonyloxy-3-cephem-4-carboxylic acid]	10.7 µg/mL (≈ 25.6 µM)	11 µg/mL (≈ 26.3 µM)	6.5 µg/mL (≈ 15.5 µM)	3.5 µg/mL (≈ 8.36 µM)	2 µg/mL (≈ 4.78 µM)	> 200 µg/mL	110 µg/mL (≈ 263 µM)	3.9	–
CCS(=O)(=O)OC1=C(C(=O)O)N2C(=O)C(NC(=O)Cc3cccs3)[C@H]2SC1 (stereo partly shown) [Compound 2, 7-[2-(2-thienyl)acetamido]-3-ethylsulfonyloxy-3-cephem-4-carboxylic acid]	7 µg/mL (≈ 16.2 µM)	13.1 µg/mL (≈ 30.3 µM)	7 µg/mL (≈ 16.2 µM)	3.5 µg/mL (≈ 8.09 µM)	4 µg/mL (≈ 9.25 µM)	> 200 µg/mL	120 µg/mL (≈ 277 µM)	4.15	–
CCCCS(=O)(=O)OC1=C(C(=O)O)N2C(=O)C(NC(=O)Cc3cccs3)[C@H]2SC1 (stereo partly shown) [Compound 3, 7-[2-(2-thienyl)acetamido]-3-n-butylsulfonyloxy-3-cephem-4-carboxylic acid]	6.5 µg/mL (≈ 14.1 µM)	8.8 µg/mL (≈ 19.1 µM)	5.5 µg/mL (≈ 11.9 µM)	6 µg/mL (≈ 13 µM)	6 µg/mL (≈ 13 µM)	> 200 µg/mL	180 µg/mL (≈ 391 µM)	4.75	–
Cc1ccc(S(=O)(=O)OC2=C(C(=O)O)N3C(=O)C(NC(=O)Cc4cccs4)[C@H]3SC2)cc1 (stereo partly shown) [Compound 4, 7-[2-(2-thienyl)acetamido]-3-(p-toluenesulfonyloxy)-3-cephem-4-carboxylic acid]	19.5 µg/mL (≈ 39.4 µM)	16.3 µg/mL (≈ 33 µM)	9.3 µg/mL (≈ 18.8 µM)	16.5 µg/mL (≈ 33.4 µM)	125 µg/mL (≈ 253 µM)	> 200 µg/mL	> 200 µg/mL	4.4	–
O=C(Cc1cccs1)NC1C(=O)N2C(C(=O)O)=C(OS(=O)(=O)c3ccc(F)cc3)CS[C@H]12 (stereo partly shown) [Compound 5, 7-[2-(2-thienyl)acetamido]-3-(4-fluorobenzenesulfonyloxy)-3-cephem-4-carboxylic acid]	16.5 µg/mL (≈ 33.1 µM)	24 µg/mL (≈ 48.1 µM)	16.3 µg/mL (≈ 32.7 µM)	12 µg/mL (≈ 24.1 µM)	13.5 µg/mL (≈ 27.1 µM)	> 200 µg/mL	> 200 µg/mL	4.25	–
CS(=O)(=O)OC1=C(C(=O)O)N2C(=O)C(NC(=O)[C@H](N)c3ccccc3)C2SC1 (stereo partly drawn) [Compound 6, 7-(D-phenylglycylamido)-3-methylsulfonyloxy-3-cephem-4-carboxylic acid]	13.6 µg/mL (≈ 31.8 µM)	19.5 µg/mL (≈ 45.6 µM)	5.5 µg/mL (≈ 12.9 µM)	8.8 µg/mL (≈ 20.6 µM)	7 µg/mL (≈ 16.4 µM)	> 200 µg/mL	100 µg/mL (≈ 234 µM)	3.6	6.75
